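Protocol summary: plate cells (96-well), add compound at 5 concentrations, incubate 48 h, interpolate endpoints linearly. GI50: concentration for 50% inhibition of growth.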 Active and inactive are the calls of the source. No stated cut-off is given here; in the data, active = GI50 up to about 1.1 µM and inactive = higher.
Tests used:
Assay in all cases: NCI tumour cell line growth inhibition, 48 h
T47D = test system: T47D
UO-31 = test system: UO-31
TK-10 = test system: TK-10
OVCAR-8 = test system: OVCAR-8
UACC-62 = test system: UACC-62
M14 = test system: M14
SF-268 = test system: SF-268
HT-29 = test system: HT-29
LOX IMVI = test system: LOX IMVI
MDA-MB-231 = test system: MDA-MB-231
MOLT-4 = test system: MOLT-4
SF-295 = test system: SF-295
A498 = test system: A498
A549 = test system: A549
HOP-92 = test system: HOP-92
RXF 393 = test system: RXF 393
786-0 = test system: 786-0
CCRF-CEM = test system: CCRF-CEM
SR = test system: SR
Hs-578T = test system: Hs-578T
HCT-116 = test system: HCT-116
SK-MEL-28 = test system: SK-MEL-28
MDA-N = test system: MDA-N
K562 = test system: K562
OVCAR-3 = test system: OVCAR-3
U-251 = test system: U-251
DU-145 = test system: DU-145
IGROV-1 = test system: IGROV-1
SK-MEL-2 = test system: SK-MEL-2
SNB-75 = test system: SNB-75
NCI-H460 = test system: NCI-H460
SK-MEL-5 = test system: SK-MEL-5
SNB-19 = test system: SNB-19
SW-620 = test system: SW-620
MDA-MB-435 = test system: MDA-MB-435
COLO 205 = test system: COLO 205
HCT-15 = test system: HCT-15
MCF7 = test system: MCF7
SN12C = test system: SN12C
UACC-257 = test system: UACC-257
SK-OV-3 = test system: SK-OV-3
RPMI-8226 = test system: RPMI-8226
HCC 2998 = test system: HCC 2998
NCI-H23 = test system: NCI-H23
ACHN = test system: ACHN
KM12 = test system: KM12
BT-549 = test system: BT-549
PC-3 = test system: PC-3
OVCAR-4 = test system: OVCAR-4
EKVX = test system: EKVX
OVCAR-5 = test system: OVCAR-5
CAKI-1 = test system: CAKI-1
HOP-62 = test system: HOP-62
NCI-H522 = test system: NCI-H522
Malme-3M = test system: Malme-3M
NCI-H226 = test system: NCI-H226
NCI/ADR-RES = test system: NCI/ADR-RES
SF-539 = test system: SF-539
HL-60 = test system: HL-60

In the case of `CCC(C)c1cnc(CC(C)C)c(=O)[nH]1` (configuration not stated), the GI50 (T47D) was > 100 µM (inactive), the GI50 (UO-31) was > 100 µM (inactive) and the GI50 (TK-10) was > 100 µM (inactive). The GI50 (OVCAR-8) was > 100 µM (inactive), the GI50 (UACC-62) was > 100 µM (inactive) and the GI50 (M14) was > 100 µM (inactive). The GI50 (SF-268) was > 100 µM (inactive), the GI50 (HT-29) was > 100 µM (inactive) and the GI50 (LOX IMVI) was > 100 µM (inactive). For the same compound, the GI50 (MDA-MB-231) was > 100 µM (inactive), the GI50 (MOLT-4) was > 100 µM (inactive) and the GI50 (SF-295) was > 100 µM (inactive). For the same compound, the GI50 (A498) was > 100 µM (inactive), the GI50 (A549) was > 100 µM (inactive) and the GI50 (HOP-92) was > 100 µM (inactive). For the same compound, the GI50 (RXF 393) was > 100 µM (inactive), the GI50 (786-0) was > 100 µM (inactive) and the GI50 (CCRF-CEM) was 89.5 µM (inactive). The GI50 (SR) was > 100 µM (inactive), the GI50 (Hs-578T) was > 100 µM (inactive) and the GI50 (HCT-116) was > 100 µM (inactive). The GI50 (SK-MEL-28) was > 100 µM (inactive), the GI50 (MDA-N) was > 100 µM (inactive) and the GI50 (K562) was > 100 µM (inactive). The GI50 (OVCAR-3) was > 100 µM (inactive), the GI50 (U-251) was > 100 µM (inactive) and the GI50 (DU-145) was > 100 µM (inactive). The GI50 (IGROV-1) was > 100 µM (inactive), the GI50 (SK-MEL-2) was > 100 µM (inactive) and the GI50 (SNB-75) was > 100 µM (inactive). For the same compound, the GI50 (NCI-H460) was > 100 µM (inactive), the GI50 (SK-MEL-5) was > 100 µM (inactive) and the GI50 (SNB-19) was > 100 µM (inactive). For the same compound, the GI50 (SW-620) was > 100 µM (inactive), the GI50 (MDA-MB-435) was > 100 µM (inactive) and the GI50 (COLO 205) was > 100 µM (inactive). The GI50 (HCT-15) was greater than 100 µM, the GI50 (MCF7) was > 100 µM (inactive) and the GI50 (SN12C) was > 100 µM (inactive). The GI50 (UACC-257) was > 100 µM (inactive), the GI50 (SK-OV-3) was > 100 µM (inactive) and the GI50 (RPMI-8226) was > 100 µM (inactive). For the same compound, the GI50 (HCC 2998) was > 100 µM (inactive), the GI50 (NCI-H23) was > 100 µM (inactive) and the GI50 (ACHN) was > 100 µM (inactive). For the same compound, the GI50 (KM12) was > 100 µM (inactive), the GI50 (BT-549) was > 100 µM (inactive) and the GI50 (PC-3) was > 100 µM (inactive). The GI50 (OVCAR-4) was > 100 µM (inactive), the GI50 (EKVX) was > 100 µM (inactive) and the GI50 (OVCAR-5) was > 100 µM (inactive). For the same compound, the GI50 (CAKI-1) was > 100 µM (inactive) and the GI50 (HOP-62) was > 100 µM (inactive).
In the case of `Cn1c(COC(=O)NC2CCCCC2)c(COC(=O)NC2CCCCC2)c2ccc3ccccc3c21`, the GI50 (T47D) was 50.4 µM (inactive), the GI50 (UO-31) was 34 µM (inactive) and the GI50 (TK-10) was 33.7 µM (inactive). The GI50 (NCI-H522) was 16.2 µM (inactive), the GI50 (OVCAR-8) was 40.2 µM (inactive) and the GI50 (UACC-62) was 48.6 µM (inactive). The GI50 (M14) was 67.3 µM (inactive), the GI50 (SF-268) was 22.4 µM (inactive) and the GI50 (HT-29) was 53.6 µM (inactive). The GI50 (LOX IMVI) was 23.3 µM (inactive), the GI50 (MDA-MB-231) was 69.5 µM (inactive) and the GI50 (MOLT-4) was 9.31 µM (inactive). The GI50 (SF-295) was 41 µM (inactive), the GI50 (A498) was 17.5 µM (inactive) and the GI50 (Malme-3M) was 36.4 µM (inactive). The GI50 (A549) was 83.8 µM (inactive), the GI50 (HOP-92) was 28.1 µM (inactive) and the GI50 (RXF 393) was 24 µM (inactive). The GI50 (786-0) was 13.3 µM (inactive), the GI50 (CCRF-CEM) was 9.77 µM (inactive) and the GI50 (SR) was 2.96 µM (inactive). For the same compound, the GI50 (Hs-578T) was 33.2 µM (inactive), the GI50 (HCT-116) was 33 µM (inactive) and the GI50 (NCI-H226) was 23.7 µM (inactive). The GI50 (MDA-N) was > 100 µM (inactive), the GI50 (K562) was 51.2 µM (inactive) and the GI50 (OVCAR-3) was 58.3 µM (inactive). For the same compound, the GI50 (NCI/ADR-RES) was 23.1 µM (inactive), the GI50 (U-251) was > 100 µM (inactive) and the GI50 (IGROV-1) was 19.1 µM (inactive). For the same compound, the GI50 (SK-MEL-2) was 31.6 µM (inactive), the GI50 (SNB-75) was 26.1 µM (inactive) and the GI50 (SF-539) was 16 µM (inactive). The GI50 (NCI-H460) was 3.01 µM (inactive), the GI50 (SK-MEL-5) was 31.7 µM (inactive) and the GI50 (SNB-19) was 55.7 µM (inactive). For the same compound, the GI50 (SW-620) was 32.4 µM (inactive), the GI50 (MDA-MB-435) was 14.3 µM (inactive) and the GI50 (COLO 205) was 33.2 µM (inactive). For the same compound, the GI50 (HCT-15) was 48.1 µM, the GI50 (MCF7) was 20.5 µM (inactive) and the GI50 (UACC-257) was 93.1 µM (inactive). For the same compound, the GI50 (SK-OV-3) was > 100 µM (inactive), the GI50 (RPMI-8226) was 49.2 µM (inactive) and the GI50 (NCI-H23) was 21.8 µM (inactive). For the same compound, the GI50 (ACHN) was 17.2 µM (inactive), the GI50 (KM12) was 30 µM (inactive) and the GI50 (BT-549) was 55.3 µM (inactive). The GI50 (PC-3) was 75.9 µM (inactive), the GI50 (OVCAR-4) was 53.3 µM (inactive) and the GI50 (EKVX) was 47.2 µM (inactive). For the same compound, the GI50 (OVCAR-5) was 43.5 µM (inactive), the GI50 (CAKI-1) was 11 µM (inactive) and the GI50 (HOP-62) was 35 µM (inactive).
`Cc1ncc([N+](=O)[O-])n1CCN(C)CCCCn1ccnc1[N+](=O)[O-]` was tested, and the GI50 (T47D) was > 100 µM (inactive), the GI50 (UO-31) was > 100 µM (inactive) and the GI50 (TK-10) was > 100 µM (inactive). The GI50 (OVCAR-8) was > 100 µM (inactive), the GI50 (UACC-62) was > 100 µM (inactive) and the GI50 (M14) was > 100 µM (inactive). The GI50 (SF-268) was > 100 µM (inactive), the GI50 (HT-29) was > 100 µM (inactive) and the GI50 (LOX IMVI) was > 100 µM (inactive). For the same compound, the GI50 (MDA-MB-231) was > 100 µM (inactive), the GI50 (MOLT-4) was > 100 µM (inactive) and the GI50 (SF-295) was > 100 µM (inactive). The GI50 (A498) was > 100 µM (inactive), the GI50 (Malme-3M) was > 100 µM (inactive) and the GI50 (A549) was > 100 µM (inactive). The GI50 (RXF 393) was > 100 µM (inactive), the GI50 (786-0) was > 100 µM (inactive) and the GI50 (CCRF-CEM) was > 100 µM (inactive). For the same compound, the GI50 (SR) was > 100 µM (inactive), the GI50 (Hs-578T) was > 100 µM (inactive) and the GI50 (HCT-116) was > 100 µM (inactive). The GI50 (NCI-H226) was > 100 µM (inactive), the GI50 (SK-MEL-28) was > 100 µM (inactive) and the GI50 (MDA-N) was > 100 µM (inactive). The GI50 (K562) was > 100 µM (inactive), the GI50 (OVCAR-3) was > 100 µM (inactive) and the GI50 (U-251) was > 100 µM (inactive). For the same compound, the GI50 (DU-145) was > 100 µM (inactive), the GI50 (SK-MEL-2) was > 100 µM (inactive) and the GI50 (SNB-75) was > 100 µM (inactive). For the same compound, the GI50 (SF-539) was > 100 µM (inactive), the GI50 (HL-60) was > 100 µM (inactive) and the GI50 (NCI-H460) was > 100 µM (inactive). The GI50 (SK-MEL-5) was > 100 µM (inactive), the GI50 (SNB-19) was > 100 µM (inactive) and the GI50 (SW-620) was > 100 µM (inactive). For the same compound, the GI50 (MDA-MB-435) was > 100 µM (inactive), the GI50 (COLO 205) was > 100 µM (inactive) and the GI50 (HCT-15) was greater than 100 µM. For the same compound, the GI50 (MCF7) was > 100 µM (inactive), the GI50 (SN12C) was > 100 µM (inactive) and the GI50 (UACC-257) was > 100 µM (inactive). The GI50 (SK-OV-3) was > 100 µM (inactive), the GI50 (RPMI-8226) was > 100 µM (inactive) and the GI50 (HCC 2998) was > 100 µM (inactive). For the same compound, the GI50 (NCI-H23) was > 100 µM (inactive), the GI50 (ACHN) was > 100 µM (inactive) and the GI50 (KM12) was > 100 µM (inactive). The GI50 (BT-549) was > 100 µM (inactive), the GI50 (PC-3) was > 100 µM (inactive) and the GI50 (OVCAR-4) was > 100 µM (inactive). The GI50 (EKVX) was > 100 µM (inactive), the GI50 (OVCAR-5) was > 100 µM (inactive) and the GI50 (CAKI-1) was > 100 µM (inactive). For the same compound, the GI50 (HOP-62) was > 100 µM (inactive).
